Here are results for 16 compounds from patent US4468399A, “2-[2-(2-Aminoalkyl-4-thiazolylmethylthio)alkyl]-amino-5-substituted-4-pyr imidones” (Eli Lilly and Company, priority 1983, dated 1984).

One test has as its system H2-receptor. The settings on record: cited from earlier work; for H2-receptor antagonist activity in words: prior art.
For a further test, the system named is acid secretion. As to the kind of experiment: in vivo antisecretory assay, gastric fistula dogs, histamine-stimulated gastric secretion. The settings on record: for antisecretory potency relative to cimetidine, iv route: iv infusion over 30 minute period, histamine iv infusion; for recovery of acid secretions from an effective dose: after 3-4 hours. The method, then:
An in vivo assay for the antisecretory action of drugs on acid secretion utilizes gastric fistula dogs with a vagally innervated gastric fistula and vagally denervated Heidenthain pouch. A steady-state gastric secretion is produced by the iv infusion of histamine. The antisecretory drugs under test are given either intravenously by infusion over a 30 minute period or orally 75 min. prior to collection of gastric secretion from the fistula. In this assay, 2-[2-(2-dimethylaminomethyl-4-thiazolylmethylthio)ethyl]amino-5-(3-pyridyl)methyl-4-pyrimidone was 11X cimetidine by the iv route and 14X cimetidine orally. The 6-methyl-2-pyridyl analog was 14.4X cimetidine intravenously.

Test [1] concerns H2 receptor. As to the kind of experiment: H2 receptor blocking activity, isolated bullfrog gastric mucosa, histamine-stimulated acid secretion. In kind it is cell-based, bullfrog (Rana catesbeiana). Particulars: inhibition of acid secretion stimulated by 10^-5 M histamine; antagonist in serosal chamber; read-out: ED50 (the source's name). On the procedure: A second assay for H2 receptor blocking activity employs the isolated bullfrog gastric mucosa--see Warrick and Lin, Communications in Chem. Pathology and Pharmacology, 13, 149 (1976). The assay is carried out as follows: The gastric mucosa of the bullfrog (Rana catesbeiana) is separated from the musculature of the stomach and placed between a pair of Ussing chambers made of lucite. The chambers are filled with frog Ringer solution and acid secretion is stimulated by addition of histamine to the serosal side of the mucosa at a final concentration of 10^-5 M. Acid output is automatically titrated to pH 4.5. After steady response to 10^-5 M of histamine is established, the antagonist (a compound of this invention) is added to the serosal chamber and the maximal inhibition by each concentration of the H2 -antagonist is recorded. From the dose-response curve, the ED50 of the drug is calculated.
In Table 2, column 1 gives the substituent at 6 in the pyrimidone ring, column 2 the "B" group (see formula at the head of the Table), and column 3 the molar ED50.

Test [2] addresses T1, H2 receptor (Rattus norvegicus, UniProt P25102).
T1 construct: uterine horns removed therefrom and suspended at ambient temperature in isolated organ baths; from tissue; host or cells: isolated uterine horn strips of estrone-treated female albino rats
Put plainly: H2 receptor blocking activity, histamine-induced relaxation of isolated rat uterine strips. In kind it is cell-based, rat (female albino rats). The settings on record: antagonist 10^-5 molar, 30 minutes, dissociation constant from dose ratio of histamine ED50; read-out: -logKb (converted). On the procedure:
The following assay for H2 receptor blocking activity was employed. Female albino rats are treated with estrone 24 hours prior to the initiation of the experiment. The rats are sacrificed and the uterine horns removed therefrom and suspended at ambient temperature in isolated organ baths containing De Jalon's solution. After equilibration, the uterine strips are exposed to 50 millimole aqueous potassium chloride, which produces a sustained contraction. When the uterus is so contracted, histamine produces a dosedependent H2 receptor-mediated relaxation. A control dose-response curve to histamine is constructed on each tissue. Following thorough washout of the histamine after obtaining the control dose-response curve, each antagonist (a compound of this invention) is added for 30 minutes at a concentration of 10^-5 molar. The uterine strips are then contracted with aqueous potassium chloride in the presence of the antagonist and a second dose-response curve to histamine obtained. In the presence of a competitive antagonist, the dose-response curve to histamine is shifted in parallel to the right with no depression of the maximum relative to the control curve. The dose ratio (DR) is calculated for each concentration of antagonist by dividing the ED50 of histamine in the presence of the competitive antagonist by the control ED50 for histamine. The dissociation constant (KB) of the antagonist is calculated from the dose-ratios by the following equation: […]
Cimetidine is included as an internal standard.
In the table, column 1 gives the name of the compound under test and column 2, the -logKb value for that compound.

T1 sequence (P25102 whole entry): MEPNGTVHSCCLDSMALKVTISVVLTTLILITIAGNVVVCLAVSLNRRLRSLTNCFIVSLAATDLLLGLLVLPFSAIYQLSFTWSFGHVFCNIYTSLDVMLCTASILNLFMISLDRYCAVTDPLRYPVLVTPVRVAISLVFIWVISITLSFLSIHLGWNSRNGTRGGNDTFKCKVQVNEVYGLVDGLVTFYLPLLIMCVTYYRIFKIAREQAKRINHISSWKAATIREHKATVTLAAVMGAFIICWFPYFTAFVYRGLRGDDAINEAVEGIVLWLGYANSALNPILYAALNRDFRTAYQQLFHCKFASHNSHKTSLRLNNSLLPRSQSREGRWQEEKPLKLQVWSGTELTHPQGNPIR

For the compound `C#CCNC(=C[N+](=O)[O-])NCCSCc1ccc(CN(C)C)o1` [1-nitro-2-(2-propynylamino)-2-(2-[(5-dimethylaminomethyl-2-furyl)methylthio]ethylamino)ethylene], in the test on H2-receptor (U.S. Pat. No. 4,203,909), the “activity relative to cimetidine in a standard H2-receptor assay” value was 7.45 times the activity of cimetidine.

Turning to `CNC(=NC#N)NCCSCc1csc(NC(=N)N)n1` [2-guanidino-4-[2-(2-cyano-3-methylguanidino)ethylthiomethyl]thiazole], in the test on H2-receptor, the “H2-receptor antagonist activity in words” value is recorded as “greatly increased activity over cimetidine”.

For `Cc1cccc(Cc2c[nH]c(NCCSCc3csc(CN(C)C)n3)nc2=O)n1` [6-methyl-2-pyridyl analog], the “antisecretory potency relative to cimetidine, iv route” value in the test with acid secretion came out at 14.4 X cimetidine.

Regarding `CN(C)Cc1nc(CSCCNc2ncc(Cc3cccnc3)c(=O)[nH]2)cs1` [Example 1, 2-[2-(2-dimethylaminomethyl-4-thiazolylmethylthio)ethyl]amino-5-(3-pyridyl)methyl-4-pyrimidone], the IC50 in the test on H2 receptor [1] worked out at 115 nM. Also, at H2 receptor [2], the Kd is 1.1 nM. In the test with acid secretion, the “recovery of acid secretions from an effective dose” value is reported as “about 25%” and the “antisecretory potency relative to cimetidine, iv route” value is listed as 11 X cimetidine. In the test on acid secretion (orally 75 min. prior to collection of gastric secretion), the “antisecretory potency relative to cimetidine, orally” value stood at 14 X cimetidine.

`CN(C)Cc1nc(CSCCNc2nc(=O)c(Cc3ccc4c(c3)OCO4)c[nH]2)cs1` [Example 2, 2-[2-(2-dimethylaminomethyl-4-thiazolylmethylthio)ethyl]amino-5-[5-(1,3-benzodioxoly)]methyl-4-pyrimidone]: the IC50 in the test with H2 receptor [1] is 11100 nM. The Kd on H2 receptor [2] was 4.37 nM.

For `Cc1ccc(Cc2cnc(NCCSCc3csc(CN(C)C)n3)[nH]c2=O)cn1` [Example 3, 2-[2-(2-dimethylaminomethyl-4-thiazolylmethylthio)ethyl]amino-5-(6-methyl-3-pyridyl)methyl-4-pyrimidone], the IC50 with H2 receptor [1] amounted to 1350 nM. Besides, on H2 receptor [2], the Kd is 11.2 nM.

Consider `COc1ccc(Cc2cnc(NCCSCc3csc(CN(C)C)n3)[nH]c2=O)cn1` [Example 4, 2-[2-(2-dimethylaminomethyl-4-thiazolylmethylthio)ethyl]amino-5-(6-methoxy-3-pyridyl)methyl-4-pyrimidone], for which the IC50 in the test with H2 receptor [1] worked out at 12600 nM. The Kd on H2 receptor [2] was 60.3 nM.

For the compound `Cc1cc(Cc2cnc(NCCSCc3csc(CN(C)C)n3)[nH]c2=O)cnc1C` [Example 5, 2-[2-(2-dimethylaminomethyl-4-thiazolylmethylthio)ethyl]amino-5-(5,6-dimethyl-3-pyridyl)methyl-4-pyrimidone], the IC50 in the test on H2 receptor [1] was determined as 2350 nM. For the same compound, on H2 receptor [2], the Kd is 3.89 nM.

Consider `CN(C)Cc1nc(CSCCNc2ncc(Cc3ccc(O)nc3)c(=O)[nH]2)cs1` [Example 6, 2-[2-(2-dimethylaminomethyl-4-thiazolylmethylthio)ethyl]amino-5-(6-hydroxy-3-pyridyl)methyl-4-pyrimidone], for which the IC50 with H2 receptor [1] came out at 252 nM.

With `COc1cc(Cc2cnc(NCCSCc3csc(CN(C)C)n3)[nH]c2=O)ccn1` [Example 7, 2-[2-(2-dimethylaminomethyl-4-thiazolylmethylthio)ethyl]amino-5-(2-methoxy-4-pyridyl)methyl-4-pyrimidone], the IC50 with H2 receptor [1] came to 3000 nM.

Regarding `Cc1nc(NCCSCc2csc(CN(C)C)n2)[nH]c(=O)c1Cc1cccnc1` [Example 8, 2-[2-(2-dimethylaminomethyl-4-thiazolylmethylthio)ethyl]amino-5-(3-pyridyl)methyl-6-methyl-4-pyrimidone], the IC50 with H2 receptor [1] amounted to 2000 nM.

Take `CN(C)Cc1nc(CSCCNc2ncc(Cc3ccnc(O)c3)c(=O)[nH]2)cs1` [Example 9, 2-[2-(2-dimethylaminomethyl-4-thiazolylmethylthio)ethyl]amino-5-(2-hydroxy-4-pyridyl)methyl-4-pyrimidone]: the IC50 in the test with H2 receptor [1] worked out at 603 nM.

On to `CN(C)Cc1nc(CSCCNc2ncc(Cc3ccccn3)c(=O)[nH]2)cs1` [Example 10, 2-[2-(2-dimethylaminomethyl-4-thiazolylmethylthio)ethyl]amino-5-(2-pyridyl)methyl-4-pyrimidone], for which, in the test on H2 receptor [1], the IC50 was 163 nM. The Kd on H2 receptor [2] is 17.4 nM.

As to `CN(C)Cc1nc(CSCCNc2ncc(Cc3ccncc3)c(=O)[nH]2)cs1` [Example 11, 2-[2-(2-dimethylaminomethyl-4-thiazolylmethylthio)ethyl]amino-5-(4-pyridyl)methyl-4-pyrimidone], the IC50 with H2 receptor [1] was 196 nM. On H2 receptor [2], the Kd was 12.9 nM.

Take `CNC(=S)NCCCCc1cnc[nH]1` [burimamide]: the “H2-receptor antagonist activity in words” value in the test on H2-receptor is “powerful H2 -receptor antagonist”.

In the case of `CNC(=NCCSCc1nc[nH]c1C)NC#N` [cimetidine, N-cyano-N'-methyl-N"-[2-([(5-methyl-1H-imidazol-4-yl)methyl]thio)ethyl]guanidine, reference compound], the “recovery of acid secretions from an effective dose” value in the test on acid secretion is ~50%.
